{"source": "patent EP4032543A1", "about": "“PEPTIDES FROM THE SEQUENCE OF THE COMPLEMENT FACTOR D FOR MEDICAL USE, ESPECIALLY FOR THE TREATMENT OF EBV-ASSOCIATED DISEASES” (Fraunhofer-Gesellschaft zur Förderung der angewandten …, priority 2021, dated 2022)", "tested_on": "latently EBV-infected Raji-reporter cells", "assay": "Induction of lytic EBV-infection after proviral treatment (expression of ZEBRA)", "assay_type": "cell-based", "settings": "EBV-positive Raji-reporter cells, 24 hours induction, related to untreated control; PMA at 20 ng/ml; Figure 1", "protocol": "The relative induction of the EBV lytic cycle in latently EBV-infected Raji-reporter cells was tested using the human peptide mixture comprising the two complement factor D derived peptide sequences SEQ ID No. 3 and SEQ ID No. 4 (CFD+ peptide mixture) in comparison to the known exogenous proviral substance phorbol-12-myristate13-acetate (PMA), each related to the untreated control. The EBV-positive Raji-reporter cells were treated with the human peptide mixture or with the 20 ng/ml PMA. In a control, cells were not treated with a proviral substance. After 24 hours induction the lytic EBV-infection was compared between treated and non-treated cells via expression of the lytic EBV-immediate early protein ZEBRA. […] Without being bound to the theory, it can be assumed that the pure peptides will result in an even better induction."}
{"compound": "CCCCCCCCCCCCCC(=O)O[C@@H]1[C@@H](C)[C@@]2(O)[C@@H](C=C(CO)C[C@]3(O)C(=O)C(C)=C[C@@H]23)[C@@H]2C(C)(C)[C@]12OC(C)=O", "note": "[PMA, phorbol-12-myristate13-acetate]", "values": [{"measurement": "induction of lytic EBV-infection via expression of the lytic EBV-immediate early protein ZEBRA", "value": "resulted in the induction of lytic EBV-infection"}]}
